What was measured:
Type in all cases: in vivo, BDF mice
P388 leukemia cells [1] = assay: Enhancing carcinostatic action in cancer chemotherapy (3): ADM and TMG, survival of P388 leukemia mice; conditions: ADM 16 mg/kg i.p. 1st, 3rd, 5th, 7th days, TMG 0, 7 days after administration
Procedure: P388 leukemia cells (6×10^6 cells) were administered intraperitoneally to female BDF mice of 8-9 weeks old (8 heads per group, body weight of 20-22 g). On the following day (1st day), 16 mg/kg of adriamycin (ADM) and a prescribed amount TMG were intraperitoneally administered to the mice. Thereafter, ADM (16 mg/kg) was administered on the 3rd, 5th, and 7th days and TMG (prescribed amount as mentioned above) was simultaneously administered every day on the 2nd-7th days. The survival ratio of these mice was measured 7 days after the administration of ADM and TMG.

[2] = Repressing side effects (4): decrease of body weight under ADM in P388 leukemia mice; conditions: Control Group: ADM 16 mg/kg once daily for 9 days
Procedure: P388 leukemia cells (6×10^6 cells) were administered intraperitoneally to female BDF mice of 8-9 weeks old (8 heads per group, body weight of 20-22 g). On the following day, ADM was administered in a dosage of 16 mg/kg once daily for 9 days. The mice formed Control Group. A group of mice to which TMG was administered simultaneously with ADM in a dosage of 0.1 mg/kg once daily for 9 days formed Test Group.
The time-course changes of the body weight of the Control Group and Test Group were measured.

P388 leukemia cells [3] = assay: Enhancing carcinostatic action in cancer chemotherapy (1): CDDP and TMG, survival of P388 leukemia mice; conditions: 5th, TMG 0, 60 days; for Number surviving: 8 per group
Procedure: P388 leukemia cells (6×10^6 cells) were administered intraperitoneally to female BDF mice of 8-9 weeks old (8 heads per group, body weight of 20-22 g). On the following day, a solution having prescribed amounts of cisplatin (CDDP) and TMG in 0.2 ml of physiological saline was intraperitoneally administered to the mice. The survival ratio of these mice was measured 60 days after the administration of CDDP and TMG.

[4] = Repressing side effects (1): survival after lethal dose of CDDP
Procedure: CDDP was intraperitoneally administered in a dosage of 16 mg/kg, a lethal dose, to 10 BDF mice of 8 weeks old (22-25 g). These mice formed Control Group. A group of mice to which CDDP was administered simultaneously with TMG in a dosage of 0.01 mg/kg formed Test Group 1 and a group of mice to which CDDP was administered simultaneously with TMG in a dosage of 1.0 mg/kg formed Test Group 2. The time course changes of survival ratio of the Control Group and Test Groups were measured.

[5] = Repressing side effects (2): number of leukocytes in blood under CDDP; conditions: Control Group: CDDP 2 mg/kg i.p. once daily for 10 days
Procedure: CDDP was intraperitoneally administered in a dosage of 2 mg/kg to 5 BDF mice of 8 weeks old once daily for 10 days. These mice formed Control Group. A group of mice to which CDDP was administered simultaneously with TMG in a dosage of 1 mg/kg once daily for 10 days formed Test Group. The time course changes of the numbers of leukocytes in blood of the Control Group and Test Group were measured.

P388 leukemia cells [6] = assay: Enhancing carcinostatic action in cancer chemotherapy (2): CPA and TMG, survival of P388 leukemia mice; conditions: CPA alone administered, 360 mg/kg i.p. 1st, 3rd, 5th, 7th days, 60 days
Procedure: P388 leukemia cells (6×10^6 cells) were administered intraperitoneally to female BDF mice of 8-9 weeks old (8 heads per group, body weight of 20-22 g). On the following day (1st day), cyclophosphamide (CPA) and TMG were administered at respective dose of 360 mg/kg and 0.01 mg/kg were intraperitoneally administered to the mice. Thereafter, CPA (360 mg/kg) was administered on the 3rd, 5th, and 7th days and TMG (0.01 mg/kg) was administered every day from the 2nd through 9th days. The survival ratio of these mice was measured 60 days after the administration of CPA and TMG.

[7] = CDDP 2 mg/kg i.p. 1st, 3rd, 7th days
[8] = CDDP 4 mg/kg i.p. 1st, 9th days

COc1cccc2c1C(=O)c1c(O)c3c(c(O)c1C2=O)C[C@@](O)(C(=O)CO)C[C@@H]3O[C@H]1C[C@H](N)[C@H](O)[C@H](C)O1 [ADM, adriamycin]
Survival ratio (P388 leukemia cells [1]): 0%
Number surviving (P388 leukemia cells [1]; 8 per group): 0 Heads
Decrease of body weight ([2]; P388 mice, day 1 after start of the test): 1.5 g
Decrease of body weight ([2]; day 3): 3.3 g
Decrease of body weight ([2]; day 5): 5.7 g
Decrease of body weight ([2]; day 7): 6.5 g

[NH2][Pt]([NH2])([Cl])[Cl] [CDDP, cisplatin]
Survival ratio (P388 leukemia cells [3]; [7]): 75%
Number surviving (P388 leukemia cells [3]; [7]): 6 Heads
Survival ratio (P388 leukemia cells [3]; [8]): 75%
Number surviving (P388 leukemia cells [3]; [8]): 6 Heads
Survival ratio ([4]; Control Group: CDDP 16 mg/kg i.p. (lethal dose) alone, day 0 after administration of CDDP): 100%
Survival ratio ([4]; Control Group: CDDP 16 mg/kg i.p. alone, day 5): 80%
Survival ratio ([4]; Control Group: CDDP 16 mg/kg i.p. alone, day 8): 30%
Survival ratio ([4]; Control Group: CDDP 16 mg/kg i.p. alone, day 10): 0%
Number of leukocytes ([5]; day 0 after start of test): 20000 µL⁻¹
Number of leukocytes ([5]; day 10): 10000 µL⁻¹
Number of leukocytes ([5]; day 20): 6000 µL⁻¹
Number of leukocytes ([5]; day 25): 11000 µL⁻¹

O=P1(N(CCCl)CCCl)NCCCO1 (centres unmarked) [CPA, cyclophosphamide]
Survival ratio (P388 leukemia cells [6]): 50%
Number surviving (P388 leukemia cells [6]; 8 per group): 4 Heads

Source: patent publication US7462601B2, “Ameliorant for chemical treatment of cancer” (priority 2002, dated 2008)
